The target of data set [1] is T1, STK4 (Homo sapiens (Human), UniProt Q13043). Description: ADP-Glo kinase assay, STK4. Type of data set: biochemical. The gist of the method:
(§1)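 ADP-Glo readout at 50 μM ATP with 50 ng full-length enzyme: STK4 on 300 μg/mL Axltide substrate, STK3 on 250 μg/mL myelin basic protein. Done as three independent runs in triplicate.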

In data set [2] the target is T2, STK3 (Homo sapiens (Human), UniProt Q13188). Description: ADP-Glo kinase assay, STK3. Type of data set: biochemical. The conditions noted are these: ADP-Glo, 50 μM ATP; read-out: STK3 IC50. The procedure, abridged: as §1
Data set [3] has as its system phosphorylated MOB1 (Thr35) in HEK293 cells. Description: Western blot analysis of p-MOB1 in HEK293 cells. Type of data set: cell-based. Particulars: 10 μM, 4 h, then H2O2 50 μM 2 h, vs DMSO. On the procedure: Cells were harvested by pipetting, pelleted by centrifugation at 1400 rpm for 4 min, and lysed in RIPA buffer for 10 min at room temperature. The lysates were centrifuged at 12,000×g at room temperature (RT) for 10 min and the supernatants were recovered. Protein concentrations in the supernatants were determined using a BCA assay (Pierce/Thermo Scientific). Proteins were separated on NovexTM WedgeWellTM 4-20% Tris-Glycine Gels (Invitrogen; Carlsbad, CA, USA) and transferred to polyvinylidene difluoride (Trans-Blot® TurboTM Transfer Pack) membranes. […] Danvers. MA. USA). Blots were rinsed three times with TBST and then incubated in 5% nonfat milk containing horseradish peroxidase (HRP)-conjugated mouse anti-rabbit IgG secondary Ab (Cell Signaling Technology) for 1 h at RT. Blots were washed three times with TBST, developed using Pierce® ECL Western Blotting reagent, and imaged and analyzed using with ImageJ software. Quantitative data are expressed as the level of phosphorylated MOB1 normalized to total MOB1. To confirm that the cellular mechanism of action of our inhibitors was through inhibition of Hippo pathway signaling. […] Inhibition of STK3/4 in vitro and in vivo can produce decreased phosphorylation of the Hippo pathway adapter protein MOB1 at […].

In data set [4] the target is T2, STK3. Description: NanoBRET intracellular kinase assay, STK3. Type of data set: cell-based. The method, then:
(§2) Full-length STK3, STK4, and LRRK2 kinase was cloned in-frame with a C-terminal NanoLuc-fusion (Promega: Madison, WI, USA) and the plasmid was transfected into HEK293T cells using FuGENE HD (Promega, E2312). […] After 2 h at 37° C. in a 5% CO2 atmosphere, NanoBRET NanoGlo Substrate+Extra-cellular NanoLuc Inhibitor (Promega, N2540) was added, and filtered luminescence was measured on a PHERAstar plate reader (BMG Labtech; Ortenberg, Germany) equipped with a lumi-nescence filter pair (450 nm BP filter (donor) and 610 nm LP filter (acceptor)).
(§3) This assay measured the apparent affinity of test compounds by competitive displacement of the NanoBRET™ tracer, reversibly bound to a NanoLuc® luciferase-kinase fusion in cells. To evaluate potential off-target activity of the inhibitors, the inhibition of LRRK2 in live cells by the STK3/4 inhibitors compounds described herein were measured. […] A 50 nM tracer and these compounds were added to cells and incubated for 2 h.

Data set [5] has as its target LRRK2 (Homo sapiens (Human), UniProt Q5S007). Description: NanoBRET intracellular kinase assay, LRRK2. Type of data set: cell-based. The conditions noted are these: transfected HEK293 cells, 2 h. On the procedure:
Full-length STK3, STK4, and LRRK2 kinase was cloned in-frame with a C-terminal NanoLuc-fusion (Promega: Madison, WI, USA) and the plasmid was transfected into HEK293T cells using FuGENE HD (Promega, E2312). After 20 h, transfected cells were mixed with inhibitors and 50 nM NanoBRET Kinase Tracer K10 (Promega) and reseeded at a density of 2× 10^5 cells/mL in Opti-Minimal Essential Medium (MEM) without phenol red (Life Technologies; Carlsbad, CA, USA) in 384-well plates (Greiner 781-207; Kremsmunster, Austria). After 2 h at 37° C. in a 5% CO2 atmosphere, NanoBRET NanoGlo Substrate+Extra-cellular NanoLuc Inhibitor (Promega, N2540) was added, and filtered luminescence was measured on a PHERAstar plate reader (BMG Labtech; Ortenberg, Germany) equipped with a lumi-nescence filter pair (450 nm BP filter (donor) and 610 nm LP filter (acceptor)).
To confirm cellular potency for compounds described herein, the […] were used to detect engagement of STK3 and STK4 in live cells using the NanoBRET™ intracellular kinase assay, marking the first report of a NanoBRET assay for STK3 and STK4. This assay measured the apparent affinity of test compounds by competitive displacement of the NanoBRET™ tracer, reversibly bound to a NanoLuc® luciferase-kinase fusion in cells. To evaluate potential off-target activity of the inhibitors, the inhibition of LRRK2 in live cells by the STK3/4 inhibitors compounds described herein were measured. Cultured HEK293 cells were either transfected with NanoLuc®-STK3 fusion vector, NanoLuc®-STK4 fusion, or with NanoLuc®-LRRK2 vector for 24 h. A 50 nM tracer and these compounds were added to cells and incubated for 2 h. These compounds tested in the assays decreased the NanoBRET™ signal for both STK3 and STK4 at varying potencies and confirming cellular target engagement of STK3/4.

Data set [6] is described as follows: In vivo plasma and liver concentrations, 20 mg/kg intraperitoneal. Particulars: female, C57BL/6J, mouse, ip, 20 mg/kg. On the procedure:
All animal procedures were approved by the Sanford Burnham Prebys Medical Discovery Institute Institutional Animal Care and Use Committee and were performed according to the NIH guidelines for the Care and Use of Laboratory Animals. Adult female C57BL/6J mice were purchased from Jackson Laboratories and housed with free access to food and water on a 12 h light/dark cycle. Compounds were formulated in 5% DMSO, 10% Tween-80, and 85% H2O and injected intraperitoneally at 10 or 20 mg/kg. Blood samples were collected retro-orbitally at the indicated times and plasma was prepared by centrifugation. Livers were collected post mortem at the indicated times.
For quantification of compound, plasma samples were extracted with acetonitrile: water 4:1 with 0.1% formic acid containing indomethacin as an internal standard. Samples were centrifuged and the supernatants were diluted with acetonitrile: water and analyzed by LC-MS/MS using a Shimadzu Nexera X2 High-performance liquid chromatography (HPLC) (Shimadzu Scientific Instruments: Kyoto, Japan) coupled to an AB Sciex 6500 QTRAP (AB Sciex LLC: Toronto, Canada).
Adult female C57BL/6 mice (n=3/group) were intraperitoneally injected with vehicle or test compound (20 mg/kg), and blood samples and livers were collected at 30 min and 1 h post-injection, respectively. Plasma concentrations of all 13 compounds were >1.4 μM at 30 min after injection, and 10 compounds had liver concentrations >1.0 μM at 1 h after injection, as measured by LC-MS/MS, with particularly high plasma concentrations obtained with compounds 11 (15.9 μM), 16 (11.6 μM) and 105 (8.7 μM) (Table 5). To evaluate target engagement in vivo, the total and phosphorylated MOB1 levels in livers collected at 1 h post-injection was examined.
Tween 80 and water and were administered to mice by intraperitoneal injection. Blood samples and livers were collected at 30 min and 1 h post-dose, respectively. Plasma concentrations and relative pMOB1 levels were determined by LC-MS/MS and western blot analysis, respectively. (n=3).

In data set [7] the target is T2, STK3. Description: Thermal shift assay (ThermoFluor differential scanning fluorimetry). Type of data set: binding. Particulars: read-out: ΔTm.
Method: Temperature-dependent protein unfolding profiles were measured using a Real-Time PCR Mx3005p machine (Stratagene: San Diego, CA, USA). Data evaluation and melting temperature calculation were performed using Protein Thermal Shift™ Software v1.2.
To further evaluate binding of these compounds to STK3/4, differential scanning fluorimetry (protein thermal shift using ThermoFluor technology) assay was used to benchmark the capacity to stabilize the kinase domain. The melting temperature (Tm) of STK3 or STK4 was measured in the presence of vehicle (DMSO) or 6, 11 or 23.
In data set [8] the test system is YAP/TAZ-TEAD activity (8×GTIIC-luciferase) in HEK293 cells. Description: YAP-TAZ-TEAD luciferase assay. Type of data set: cell-based. The conditions noted are these: 10 μM, 48 h, vs DMSO. On the procedure:
8×GTIIC-luciferase was a gift from Stefano Piccolo (Addgene plasmid #34615, http://n2t.net/addgene: 34615: RRID: Addgene_34615). HEK293 cells were transfected with 8×GTIIC-luciferase plasmid and control Renilla luciferase plasmid using jetPRIME transfection reagent (Polyplus-transfection RSA: New York, NY. USA) for 24 h and cultured in Dulbeco's Modified Eagle Media (DMEM) Glutamax supplemented with 10% Fetal Bovine Serum (FBS), antibiotic/antimycotic, and sodium pyruvate (Gibco. Thermo FisherScientific: Waltham. MA. USA). The transfected cells were treated with 10 μM compound in triplicate and incubated for 48 h at 37° C. Firefly and Renilla luminescence were detected with a Dual-Glo Luciferase Assay System (Promega #E2920) according to the manufacturer's recommendations. The ratio of firefly to Renilla luminescence was calculated for each well and normalized to the ratio in control cells incubated with DMSO.
STK3/4 can negatively regulate the activity of the YAP/TAZ-TEAD protein complex and, accordingly, inactivation of these kinases reduces the transcription of YAP/TAZ-TEAD target genes. […] The results confirmed the intracellular on-target activity of our potent compounds for inhibiting STK3 and STK4 activity and targeting gene expression in the Hippo signaling pathway.

The target of data set [9] is T1, STK4. Description: NanoBRET intracellular kinase assay, STK4. Type of data set: cell-based. Particulars: transfected HEK293 cells, 2 h. On the procedure:
as §2, §3

In data set [10] the test system is ULK1/2 and Aurora kinases. Particulars: including inhibition of ULK1/2 and Aurora kinases; cited from earlier work.
Setting [11] is: NanoBRET, transfected HEK293 cells, 2 h, read-out: STK3: IC50.
[12] abbreviates: ADP-Glo, 50 μM ATP, read-out: STK4 IC50.

Sequence of LRRK2 (Q5S007 whole entry, species assumed, the tested form may be a part): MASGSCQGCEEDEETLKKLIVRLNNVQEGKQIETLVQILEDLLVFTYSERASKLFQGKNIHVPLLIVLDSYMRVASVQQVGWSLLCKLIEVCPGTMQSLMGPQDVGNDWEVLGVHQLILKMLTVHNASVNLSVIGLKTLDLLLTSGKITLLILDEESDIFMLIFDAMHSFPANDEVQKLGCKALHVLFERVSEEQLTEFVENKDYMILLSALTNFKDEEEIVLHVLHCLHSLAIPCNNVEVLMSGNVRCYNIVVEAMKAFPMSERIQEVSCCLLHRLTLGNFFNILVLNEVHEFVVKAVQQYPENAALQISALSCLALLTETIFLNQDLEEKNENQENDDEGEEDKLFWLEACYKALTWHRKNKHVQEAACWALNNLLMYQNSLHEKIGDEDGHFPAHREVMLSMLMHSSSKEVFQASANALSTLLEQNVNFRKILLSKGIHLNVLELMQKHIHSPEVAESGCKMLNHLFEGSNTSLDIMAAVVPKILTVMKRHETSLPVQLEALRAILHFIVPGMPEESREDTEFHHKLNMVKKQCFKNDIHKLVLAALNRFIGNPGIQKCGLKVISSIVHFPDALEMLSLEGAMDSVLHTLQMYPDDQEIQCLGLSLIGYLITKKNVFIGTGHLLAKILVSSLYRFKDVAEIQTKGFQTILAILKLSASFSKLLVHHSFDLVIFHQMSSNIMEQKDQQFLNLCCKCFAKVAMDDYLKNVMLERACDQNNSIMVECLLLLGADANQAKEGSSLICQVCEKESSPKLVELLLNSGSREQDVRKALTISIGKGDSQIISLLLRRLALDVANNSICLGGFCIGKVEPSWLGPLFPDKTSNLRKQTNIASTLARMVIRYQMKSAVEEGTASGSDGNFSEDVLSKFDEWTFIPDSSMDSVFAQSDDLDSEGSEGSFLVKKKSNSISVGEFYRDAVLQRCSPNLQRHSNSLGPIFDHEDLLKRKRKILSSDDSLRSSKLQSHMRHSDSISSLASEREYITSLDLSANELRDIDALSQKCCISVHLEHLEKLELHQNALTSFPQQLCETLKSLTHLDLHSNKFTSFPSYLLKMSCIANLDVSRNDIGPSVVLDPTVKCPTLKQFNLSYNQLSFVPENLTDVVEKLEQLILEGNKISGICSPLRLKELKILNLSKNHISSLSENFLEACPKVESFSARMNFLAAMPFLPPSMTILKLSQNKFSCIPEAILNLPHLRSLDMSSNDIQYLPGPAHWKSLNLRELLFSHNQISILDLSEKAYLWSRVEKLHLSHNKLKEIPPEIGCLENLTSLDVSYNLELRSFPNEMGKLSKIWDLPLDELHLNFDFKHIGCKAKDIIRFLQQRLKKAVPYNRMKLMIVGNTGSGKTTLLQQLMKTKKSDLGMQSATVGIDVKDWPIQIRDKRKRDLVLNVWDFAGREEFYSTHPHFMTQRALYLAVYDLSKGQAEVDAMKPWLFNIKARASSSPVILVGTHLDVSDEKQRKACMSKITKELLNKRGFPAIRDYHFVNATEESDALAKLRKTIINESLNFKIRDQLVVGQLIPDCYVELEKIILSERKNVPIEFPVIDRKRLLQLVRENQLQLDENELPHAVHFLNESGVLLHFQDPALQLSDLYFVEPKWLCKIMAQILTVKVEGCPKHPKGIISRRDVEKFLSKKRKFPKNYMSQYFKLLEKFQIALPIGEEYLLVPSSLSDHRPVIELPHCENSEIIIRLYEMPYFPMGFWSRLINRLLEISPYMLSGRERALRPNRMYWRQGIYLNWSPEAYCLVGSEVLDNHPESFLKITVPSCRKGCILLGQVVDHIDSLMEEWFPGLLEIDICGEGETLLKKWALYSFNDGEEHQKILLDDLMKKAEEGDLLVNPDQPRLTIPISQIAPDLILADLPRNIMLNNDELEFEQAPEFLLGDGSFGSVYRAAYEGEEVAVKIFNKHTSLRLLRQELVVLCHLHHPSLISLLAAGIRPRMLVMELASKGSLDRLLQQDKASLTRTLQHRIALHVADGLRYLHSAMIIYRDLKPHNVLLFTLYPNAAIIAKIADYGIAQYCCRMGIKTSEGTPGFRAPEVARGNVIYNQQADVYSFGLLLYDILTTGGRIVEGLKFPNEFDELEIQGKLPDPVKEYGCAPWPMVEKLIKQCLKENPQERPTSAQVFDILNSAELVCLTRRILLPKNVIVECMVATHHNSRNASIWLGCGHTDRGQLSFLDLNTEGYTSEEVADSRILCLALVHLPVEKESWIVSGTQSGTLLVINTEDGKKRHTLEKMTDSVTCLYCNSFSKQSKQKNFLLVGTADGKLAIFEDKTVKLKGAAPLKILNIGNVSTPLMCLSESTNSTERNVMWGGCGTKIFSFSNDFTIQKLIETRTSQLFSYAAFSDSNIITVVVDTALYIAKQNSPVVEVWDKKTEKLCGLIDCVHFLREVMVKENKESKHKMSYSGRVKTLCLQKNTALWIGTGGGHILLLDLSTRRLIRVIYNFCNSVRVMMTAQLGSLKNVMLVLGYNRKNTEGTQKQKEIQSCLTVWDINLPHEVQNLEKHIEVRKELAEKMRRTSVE
T2 sequence (Q13188 whole entry): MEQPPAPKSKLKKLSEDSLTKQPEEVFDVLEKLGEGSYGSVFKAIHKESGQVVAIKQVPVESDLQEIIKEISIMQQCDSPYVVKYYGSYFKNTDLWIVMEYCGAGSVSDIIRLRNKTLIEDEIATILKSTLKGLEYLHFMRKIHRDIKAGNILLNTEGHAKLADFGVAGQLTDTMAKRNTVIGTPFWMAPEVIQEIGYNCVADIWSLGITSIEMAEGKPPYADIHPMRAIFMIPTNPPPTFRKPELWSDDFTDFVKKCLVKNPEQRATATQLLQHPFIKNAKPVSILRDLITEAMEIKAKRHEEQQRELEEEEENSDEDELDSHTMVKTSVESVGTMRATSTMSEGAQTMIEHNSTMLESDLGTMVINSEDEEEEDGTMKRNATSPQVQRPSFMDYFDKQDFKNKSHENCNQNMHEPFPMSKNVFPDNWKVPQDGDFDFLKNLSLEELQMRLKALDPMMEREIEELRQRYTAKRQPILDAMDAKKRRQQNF
T1 sequence (Q13043 whole entry): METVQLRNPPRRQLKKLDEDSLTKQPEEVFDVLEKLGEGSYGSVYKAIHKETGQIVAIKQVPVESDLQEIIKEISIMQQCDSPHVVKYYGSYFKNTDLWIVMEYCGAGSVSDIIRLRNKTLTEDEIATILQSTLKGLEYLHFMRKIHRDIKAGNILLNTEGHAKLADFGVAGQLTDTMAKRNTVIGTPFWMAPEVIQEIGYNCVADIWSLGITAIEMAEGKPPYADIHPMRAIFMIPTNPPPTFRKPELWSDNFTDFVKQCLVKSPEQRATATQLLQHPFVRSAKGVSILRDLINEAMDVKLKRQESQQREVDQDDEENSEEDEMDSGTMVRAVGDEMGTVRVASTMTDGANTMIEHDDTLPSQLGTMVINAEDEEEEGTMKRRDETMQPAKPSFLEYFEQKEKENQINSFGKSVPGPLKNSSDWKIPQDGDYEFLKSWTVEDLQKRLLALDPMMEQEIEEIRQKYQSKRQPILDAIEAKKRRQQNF

Regarding `Cc1ccccc1-c1c[nH]c2ncnc(N3CCOCC3)c12` [Compound 2, 4-(5-(o-Tolyl)-7H-pyrrolo[2,3-d]pyrimidin-4-yl)morpholine], the figures for the IC50 in [1] and in data set [2] were 1 to 5 µM and above 5 µM, respectively. In addition, the “relative expression level of phosphorylated MOB1” value (“relative expression level” for short) in data set [3] is “significant reduction”.
Regarding `Cc1cccc(-c2c[nH]c3ncnc(N4CCOCC4)c23)c1` [Compound 5, 4-(5-(m-Tolyl)-7H-pyrrolo[2,3-d]pyrimidin-4-yl)morpholine], the figures for the IC50 in data set [2], in [4] (setting [11]) and in data set [5] were below 1 µM, below 1 µM and at most 1 µM, respectively. Further, the concentration at 30 min in data set [6] was 2.8 µM. The concentration at 1 h in data set [6] worked out at 7.3 µM.
Take `Fc1cccc(-c2c[nH]c3ncnc(N4CCOCC4)c23)c1` [Compound 7, 4-(5-(3-Fluorophenyl)-7H-pyrrolo[2,3-d]pyrimidin-4-yl)morpholine]: the IC50 was below 1 µM in data set [2], below 1 µM in data set [4] (setting [11]) and at most 1 µM in data set [5]. The ΔTm at 10 µM in data set [7] was determined as 8.4 °C. Further, the “YAP/TAZ-TEAD activity (luciferase reporter)” value in data set [8] is “marked increase”. In [6], the concentration at 30 min turned out to be 6 µM. The concentration at 1 h in data set [6] turned out to be 14.9 µM.
For the molecule `Clc1cccc(-c2c[nH]c3ncnc(N4CCCCC4)c23)c1` [Compound 15, 5-(3-Chlorophenyl)-4-(piperidin-1-yl)-7H-pyrrolo[2,3-d]pyrimidine], the IC50 is below 1 µM in data set [2] and 1 to 5 µM in data set [4]. Besides, in [7], the ΔTm at 10 µM stood at 8.3 °C. The “LRRK2: IC50” value in [5] was “B (B: IC50 is >2000 nM and <1000 nM)”. This molecule returned a concentration at 30 min in [6] of 3.7 µM. Further, in [6], the concentration at 1 h came to 6.5 µM.
Take `CC1(N)CCN(c2ncnc3[nH]cc(-c4cccc(Cl)c4)c23)CC1` [Compound 102, 1-(5-(3-chlorophenyl)-7H-pyrrolo[2,3-d]pyrimidin-4-yl)-4-methylpiperidin-4-amine]: the IC50 in data set [2] was below 1 µM. In addition, in data set [6], the concentration at 30 min amounted to 1.4 µM and the concentration at 1 h turned out to be 15.9 µM.
Molecule `CNC1CCN(c2ncnc3[nH]cc(-c4cccc(Cl)c4)c23)CC1` [Compound 106, 1-(5-(3-chlorophenyl)-7H-pyrrolo[2,3-d]pyrimidin-4-yl)-N-methylpiperidin-4-amine] returned an IC50 in data set [5] of at least 2 µM. In data set [6], the concentration at 30 min was found to be 2.2 µM and the concentration at 1 h was determined as 7.8 µM.
As for `CN(CCO)c1ncnc2[nH]cc(-c3cccc(Cl)c3)c12` [Compound 108, 2-((5-(3-chlorophenyl)-7H-pyrrolo[2,3-d]pyrimidin-4-yl)(methyl)amino)ethan-1-ol], the IC50 in data set [1] (setting [12]), in data set [2], in [4] (setting [11]) and in data set [9] was below 1 µM throughout. Also, in [5], the “LRRK2: IC50” value was “B (B: IC50 is >2000 nM and <1000 nM)”. In addition, the “relative expression level” value in data set [3] is given as “significant reduction”. This molecule also displayed a concentration at 30 min in [6] of 7.3 µM. Besides, the concentration at 1 h in data set [6] worked out at 0.9 µM.
`OCCCNc1ncnc2[nH]cc(-c3cccc(Cl)c3)c12` [Compound 119, 3-((5-(3-chlorophenyl)-7H-pyrrolo[2,3-d]pyrimidin-4-yl)amino)propan-1-ol]: the results for the IC50 in [2], in [4] (setting [11]) and in data set [5] were below 1 µM, below 1 µM and at least 2 µM, respectively. Besides, the concentration at 30 min in data set [6] was determined as 4.5 µM. In addition, the concentration at 1 h in [6] is 0.003 µM.
Take `CC(CO)CN(C)c1ncnc2[nH]cc(-c3cccc(Cl)c3)c12` (stereo not shown) [Compound 121, 3-((5-(3-chlorophenyl)-7H-pyrrolo[2,3-d]pyrimidin-4-yl)(methyl)amino)-2-methylpropan-1-ol]: the IC50 in data set [1] (setting [12]) was below 1 µM; in data set [2] it was below 1 µM; in data set [4] (setting [11]) it was below 1 µM; in data set [9] it was below 1 µM; in [5] it was at least 2 µM. The “relative expression level” value in [3] is “significant reduction”. The molecule also displayed a concentration at 30 min in [6] of 1.8 µM. Besides, in data set [6], the concentration at 1 h was 0.006 µM.
On to `CN1C(=O)c2sccc2N(C)c2nc(Nc3ccc(S(N)(=O)=O)cc3)ncc21` [XMU-MP-1], for which, in [10], the “off-target activity in vitro” value was “notable off-target activity”.
